From patent publication US8114850B2, “Antiproliferative activity of G-rich oligonucleotides and method of using same to bind to nucleolin” (Advanced Cancer Therapeutics, LLC, priority 1999, dated 2012) come the findings set out here.

Series [1] has as its system MDA-MB-231 breast cancer cells. Put plainly: Chemotherapeutic agent and GRO combination, MTT assay. As to conditions: cisplatin 0.5 µg/ml, GR029A 8 uM added after two hours, MTT after six days. The format is cell-based, human. On the procedure: Cisplatin (in 1% DMSO solution to give a final concentration of […]) was added to the medium of MDA-MB-231 breast cancer cells growing in culture. After two hours, GR029A (in PBS solution to give a final concentration of 8 uM) was added to the medium. After six days, the relative number of viable cells was determined using the MTT assay. Cells treated with GR029A alone received an appropriate volume of 1% DMSO in place of cisplatin. Cells treated with cisplatin alone received an appropriate volume of PBS in place of GR029A.
(In general: Tetrazolium dyes change colour on reduction, which living cells bring about.)

A further series concerns tumor cells. Put plainly: In-vitro experiments with SEQ ID NO:12 in tumor cells. It counts as cell-based. The text has this: SEQ ID NO: 12, a G-rich oligonucleotide (GRO) aptamer comprising a single-strand oligonucleotide of 26 bases, was selected for the study. […] Preclinical data indicates potential of SEQ ID NO: 12 against a wide variety of solid and hematologic malignancies.

The target of series [2] is T1, G-rich oligonucleotide binding protein / nucleolin (Homo sapiens, UniProt P19338).
T1 construct: endogenous in cells; MDA-MB-231)
T1 sequence (P19338 whole entry): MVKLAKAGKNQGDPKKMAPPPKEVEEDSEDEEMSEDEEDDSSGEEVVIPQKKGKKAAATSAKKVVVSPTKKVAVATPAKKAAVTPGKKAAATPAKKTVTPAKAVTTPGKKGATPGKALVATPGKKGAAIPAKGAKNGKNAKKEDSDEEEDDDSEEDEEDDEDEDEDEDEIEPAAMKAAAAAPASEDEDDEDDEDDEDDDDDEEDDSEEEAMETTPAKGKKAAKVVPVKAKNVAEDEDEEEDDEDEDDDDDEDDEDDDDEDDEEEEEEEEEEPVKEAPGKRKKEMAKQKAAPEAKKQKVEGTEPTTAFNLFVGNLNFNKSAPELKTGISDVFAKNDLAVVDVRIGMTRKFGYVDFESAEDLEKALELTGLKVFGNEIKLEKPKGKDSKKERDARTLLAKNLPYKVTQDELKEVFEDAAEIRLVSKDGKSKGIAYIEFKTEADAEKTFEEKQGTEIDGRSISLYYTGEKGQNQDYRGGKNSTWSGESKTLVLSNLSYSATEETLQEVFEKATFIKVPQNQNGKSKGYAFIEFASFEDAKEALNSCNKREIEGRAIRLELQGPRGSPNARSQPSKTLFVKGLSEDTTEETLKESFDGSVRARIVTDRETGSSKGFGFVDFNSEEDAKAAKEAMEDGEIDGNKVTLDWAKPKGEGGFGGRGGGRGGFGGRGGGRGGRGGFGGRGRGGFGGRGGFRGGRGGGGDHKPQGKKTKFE
As to the kind of experiment: Protein binding, summary statements (EMSA). The conditions noted are these: characterization of the aptamer. The text has this: By G-rich oligonucleotide (GRO) it is meant that the oligonucleotides consist of 4-100 nucleotides (preferably 10-30 nucleotides) with DNA, RNA, 2′-O-methyl, phosphorothioate or other chemically similar backbones. Their sequences contain one or more GGT motifs. The oligonucleotides have antiproliferative activity against cells and bind to GRO binding protein and/or nucleolin.
Additionally, the present invention provides a method for selecting oligonucleotides that bind to nucleolin. The method utilizes an electrophoretic mobility shift assay (EMSA), as described below, to screen for oligonucleotides that bind strongly to nucleolin and which, therefore, would be expected, according to the present invention, to have anti-proliferative activity. Oligonucleotides to be screened as potential antiproliferative agents are labeled and then incubated with nuclear extracts in the absence or presence of unlabeled competitor oligonucleotide and are allowed to react. The reaction mixtures are then electrophoresed and mobility shifts and/or bond intensity can be used to identify those oligonucleotides which have bound to the specific protein.
Alternatively, unlabeled compounds to be screened are incubated with nuclear extracts in the presence of labeled oligonucleotide (for example 5′-TTAGGGTTAGGGTTAGGG TTAGGG) (SEQ ID NO: 20) and binding is assessed by a decrease in the intensity of the shifted band, as in FIG. 6B.
(A gel shift assay detects complexes by their altered migration in electrophoresis.)

Another series in a line: Phase 1 study, toxicity. The format is in vivo, human. The conditions noted are these: doses up to 40 mg/kg/day for up to 7 days, continuous i.v. infusion. On the procedure: (§1) The SEQ ID NO:12 aptamer was administered to individuals as a continuous intravenous infusion. All individuals received one or two cycles of treatment. The dose escalation protocol provided a division of the subjects into cohorts of 3 in sequential order. If no individuals in a cohort experienced DLT within […] of treatment, the dosage was escalated to the next level. The dosage was increased up to 10 mg/kg/day for 7 days in the first 17 individuals and increased up to 40 mg/kg/day for 7 days in the RCC/NSCLC extension. The original starting dose was about 1 mg/kg/day for 4 days for both sets of individuals.
If no subject in the first cohort experienced DLT within 14 days of treatment, the dose for the next cohort was escalated to the next level. […] For this study, DLT was identified as grade 3-4 non-hematological toxicity, grade 4 hematological toxicity that persisted for 3 or more days, grade 4 febrile neutropenia, or grade 4 thrombocytopenia with bleeding. […]
(§2) Baseline evaluations included medical history, 12-lead electrocardiogram, safety assessments and tumor measurements within 1 week of the start of the study. Individuals were monitored in the hospital during infusion of the SEQ ID NO:12 aptamer (days 1-8) and then evaluated subsequently on days 15, 29 and 58.

Series [3] has as its system advanced, metastatic RCC (renal-cell carcinoma). Put plainly: Phase 1 study, RCC patients. The format is in vivo, human. On the procedure:
(§3) A Phase 1, open label, non-randomized dose escalation study of SEQ ID NO:12 was conducted on 17 human individuals with various advanced malignancies. […] After these 17 individuals had received treatment, only individuals with RCC (renal-cell carcinoma) or non-small-cell lung cancer (NSCLC) were enrolled in the clinical trial to obtain data for more homogenous patient populations and thereby enhance the quality of the results.
Following these findings, the trial was extended to include additional individuals (“patients”) with RCC (renal-cell carcinoma) or non-small-cell lung cancer. All of said individuals had progressive, metastatic cancers upon entry to the study. It should be noted that none of the individuals had received chemotherapy, radiotherapy or any investigational agent for cancer within the 4 weeks prior to entry to the study or 6 weeks prior for nitrosourea or mitomycin C. All individuals enrolled in the study were evaluable for toxicity and response and had measurable disease, i.e. able to be measured accurately in one or more dimension(s). Participants of the study were recruited at one site: the University of Louisville, James Brown Cancer Center, in Louisville, Ky., USA. The study was conducted in accordance with Good Clinical Practices and the Declaration of Helsinki. Institutional Review Board approval and informed patient consent were obtained before the study began.
as §1
If no subject in the first cohort experienced DLT within 14 days of treatment, the dose for the next cohort was escalated to the next level. […] For this study, DLT was identified as grade 3-4 non-hematological toxicity, grade 4 hematological toxicity that persisted for 3 or more days, grade 4 febrile neutropenia, or grade 4 thrombocytopenia with bleeding. Toxicity was graded according to the National Cancer Institute Common Terminology for Adverse Events (“NCI-CTCAE”) version 3.0.
Dose escalation was accomplished by doubling until a biological effect was noted (i.e., by development of NCI-CTCAE grade 2 toxicity), at which point the dose was escalated using a modified Fibonacci design (dose increments to 1.6 times the pervious dose level). The maximum dose for the study was 40 mg/kg/day.
as §2
Efficacy was assessed by tumor measurements and radiological evaluation at baseline ([…] to the start of the study), at day 29 and day 58.
Tumor measurements were conducted using photographs (skin lesions), chest X-rays, CT scans, magnetic resonance imaging (MRI) and ultrasound. The assessments of tumor measurements were conducted using the Response Evaluation Criteria in Solid Tumors (RECIST) guidelines. See Arbuck et al., (2000) Journal Nat'l Cancer Inst., 92: 205-16. All tumor measurements were taken in metric notation using a ruler or caliper.
As a preliminary note, tumor response was evaluated using RECIST guidelines and categorized as complete response (CR), partial response (PR), stable disease (SD) or progressive disease (PD). […]

A further series can be described thus: Stability in serum. It counts as in vitro ADME. On the procedure: The effects of four G-rich phosphodiester oligonucleotides (GROs) on the growth of tumor cells in culture were tested. These oligonucleotides consisted entirely of deoxyguanosine and thymidine and contained at least two contiguous guanosines. For increased stability to serum nucleases, oligonucleotides were modified at the 3′-terminus with a propylamino group. This modification protects the oligonucleotides from degradation in serum containing medium for at least twenty-four hours.

In series [4] the test system is non-small-cell lung cancer (NSCLC). As to the kind of experiment: Phase 1 study, NSCLC patients. The conditions noted are these: RECIST. The format is in vivo, human. On the procedure:
as §3
Following these findings, the trial was extended to include additional individuals (“patients”) with RCC (renal-cell carcinoma) or non-small-cell lung cancer. All of said individuals had progressive, metastatic cancers upon entry to the study. […] All individuals enrolled in the study were evaluable for toxicity and response and had measurable disease, i.e. able to be measured accurately in one or more dimension(s). […]
as §2
Efficacy was assessed by tumor measurements and radiological evaluation at baseline ([…] to the start of the study), at day 29 and day 58. […]

As for `N.N.[Cl][Pt][Cl]` [cis-platin, reference compound], the growth modulation in series [1] is reported as 29%.

For “5′-GGTGGTGGTGGTTGTGGTGG TGGTGG-3′ [SEQ ID NO:12]”, the “anti-proliferative response in tumor cells” value in the series on tumor cells is given as “strong anti-proliferative response”. For the same compound, in series [2], the specificity of binding result is reported as “specificity for nucleolin”. Further, in “Phase 1 study, toxicity”, the tolerability / toxicity entry is given as “well tolerated with no serious toxicity of any type related to drug administration”. Moreover, in series [3] (18 months after treatment), the “metastasis, first RCC responder” value was “single brain metastasis”. Besides, the “disease status, first RCC responder” value in series [3] (26 months after one seven-day infusion at 10 mg/kg) is reported as “no evidence of disease”. Further, the “clinical benefit (CR+PR+SD)” value in series [3] (RCC patients, RECIST) turned out to be 75%. The “response rate (CR+PR)” value in series [3] (RCC patients, continuous i.v. infusion, up to 40 mg/kg/day for up to 7 days, RECIST) is given as 17%. Further, in series [3] (RCC subjects, RECIST), the complete response came to 8.4%, the partial response is given as 8.4% and the “stable disease for the duration of the study” value is on record as 58%. Besides, the “decrease in the sum of greatest linear dimensions of target lesions from baseline” value in series [3] (second RCC responder, two seven-day infusions at 22 mg/kg) was “about 70%”. For the same compound, in the series “Stability in serum”, the stability in serum result was “extremely stable and resistant to degradation by serum enzymes”. Further, the “stable disease for the duration of the study” value in series [4] is 40%.
